The text below walks through data of ChEMBL document CHEMBL1240295, “Specificity and mechanism of action of some commonly used protein kinase inhibitors” (Biochem J, 2000).

Structures are written as SMILES.

In test [1] the target is Mitogen-activated protein kinase 11 (Homo sapiens) (UniProt Q15759). Description: Inhibition of His-tagged human SAPK2b/p38b2 expressed in Escherichia coli at 20 uM; values are per cent of control.
For test [2], the species on record is Oryctolagus cuniculus. Put plainly: Inhibition of PHK from rabbit skeletal muscle at 20 uM; values are per cent of control. The conditions noted are these: Muscle tissue.
Test [3] concerns the target T1, Casein kinase II (Homo sapiens) (UniProt P67870+P68400+P19784). Description: Inhibition of His-tagged human CK2 expressed in Sf9 cells at 20 uM. The note with it: values are per cent of control.
In test [4] the target is Mitogen-activated protein kinase 8 (Homo sapiens) (UniProt P45983). Put plainly: Inhibition of His-tagged human JNK1a1/SAPK1c expressed in Escherichia coli at 20 uM; values are per cent of control.
In test [5] the target is T2, Ribosomal protein S6 kinase beta-1 (Homo sapiens, UniProt P23443). Description: Inhibition of His-tagged human S6K1 expressed in Escherichia coli at 20 uM; values are per cent of control.
For test [6], the species on record is Rattus norvegicus. Put plainly: Inhibition of rat liver AMPK at 20 uM; values are per cent of control.
Test [7] deals with T3, Ribosomal protein S6 kinase alpha-5 (Homo sapiens, UniProt O75582). Description: Inhibition of His-tagged human MSK1 expressed in Sf9 cells at 20 uM; values are per cent of control.
Test [8] has as its target T4, Mitogen-activated protein kinase 13 (Homo sapiens) (UniProt O15264).
T4 sequence (whole entry): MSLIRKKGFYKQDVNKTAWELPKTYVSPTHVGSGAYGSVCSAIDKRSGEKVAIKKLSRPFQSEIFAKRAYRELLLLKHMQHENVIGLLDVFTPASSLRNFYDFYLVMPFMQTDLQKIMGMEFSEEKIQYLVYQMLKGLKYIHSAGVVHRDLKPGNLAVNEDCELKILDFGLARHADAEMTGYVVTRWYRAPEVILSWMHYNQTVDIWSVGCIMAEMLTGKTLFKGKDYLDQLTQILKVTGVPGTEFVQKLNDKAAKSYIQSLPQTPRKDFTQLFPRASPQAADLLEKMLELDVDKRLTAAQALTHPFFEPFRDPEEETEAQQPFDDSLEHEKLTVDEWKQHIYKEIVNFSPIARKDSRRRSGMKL
Put plainly: Inhibition of His-tagged human SAPK4/p38delta expressed in Escherichia coli at 20 uM. The note with it: values are per cent of control.

For test [9], the target named is Serine/threonine-protein kinase N2 (Homo sapiens) (UniProt Q16513). The note with it: HEK293, 20 uM.
Description: Inhibition of His-tagged human PRK2 expressed in HEK293 cells at 20 uM
Test [10] is filed under the species Bos taurus. Description: Inhibition of bovine heart PKA at 20 uM; values are per cent of control.
For test [11], the target named is T5, Serine/threonine-protein kinase Chk1 (Homo sapiens) (UniProt O14757).
T5 sequence (whole entry): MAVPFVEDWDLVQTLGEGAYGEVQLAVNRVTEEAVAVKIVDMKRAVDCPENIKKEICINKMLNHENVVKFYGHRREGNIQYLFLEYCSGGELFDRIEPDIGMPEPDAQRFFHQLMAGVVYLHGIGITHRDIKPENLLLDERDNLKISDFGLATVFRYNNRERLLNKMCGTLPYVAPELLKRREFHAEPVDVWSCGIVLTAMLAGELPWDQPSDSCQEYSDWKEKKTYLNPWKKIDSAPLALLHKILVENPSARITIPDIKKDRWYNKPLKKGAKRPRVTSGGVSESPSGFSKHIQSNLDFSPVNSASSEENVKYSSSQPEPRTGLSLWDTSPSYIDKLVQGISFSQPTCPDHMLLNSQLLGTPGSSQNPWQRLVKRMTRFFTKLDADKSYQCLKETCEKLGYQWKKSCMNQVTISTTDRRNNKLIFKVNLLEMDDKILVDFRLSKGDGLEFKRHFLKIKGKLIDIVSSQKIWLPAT
Put plainly: Inhibition of His-tagged human CHK1 expressed in Escherichia coli at 20 uM; values are per cent of control.

Test [12] deals with Mitogen-activated protein kinase 11 (Homo sapiens) (UniProt Q15759). Put plainly: Inhibition of His-tagged human SAPK2b/p38b2 expressed in Escherichia coli at 50 uM; values are per cent of control.
Test [13] addresses Protein kinase C alpha type (Homo sapiens, UniProt P17252). Description: Inhibition of His-tagged human PKCalpha expressed in Escherichia coli at 50 uM; values are per cent of control.
Test [14] has as its target Glycogen synthase kinase-3 beta (Homo sapiens, UniProt P49841). Description: Inhibition of His-tagged human GSK3b expressed in Sf21 cells at 50 uM; values are per cent of control.
Test [15] is filed under the species Oryctolagus cuniculus. Put plainly: Inhibition of PHK from rabbit skeletal muscle at 50 uM; values are per cent of control. The conditions noted are these: Muscle tissue.
Test [16] concerns the target Rho-associated protein kinase 2 (Rattus norvegicus) (UniProt Q62868). Put plainly: Inhibition of rat ROCK2 expressed in Sf9 cells at 50 uM. The note with it: values are per cent of control.
For test [17], the target named is T3, Ribosomal protein S6 kinase alpha-5. Put plainly: Inhibition of His-tagged human MSK1 expressed in Sf9 cells at 50 uM; values are per cent of control.
Test [18] has as its target Mitogen-activated protein kinase 14 (Homo sapiens) (UniProt Q16539). Put plainly: Inhibition of His-tagged human SAPK2a/p38 expressed in Escherichia coli at 50 uM; values are per cent of control.
Test [19] addresses RAC-alpha serine/threonine-protein kinase (Homo sapiens) (UniProt P31749). Put plainly: Inhibition of human PKBalpha expressed in SF9 cells at 50 uM; values are per cent of control.
For test [20], the target named is T4, Mitogen-activated protein kinase 13 (Homo sapiens). Put plainly: Inhibition of His-tagged human SAPK4/p38delta expressed in Escherichia coli at 50 uM; values are per cent of control.
Test [21] concerns the target T6, Mitogen-activated protein kinase 12 (Homo sapiens) (UniProt P53778).
T6 sequence (whole entry): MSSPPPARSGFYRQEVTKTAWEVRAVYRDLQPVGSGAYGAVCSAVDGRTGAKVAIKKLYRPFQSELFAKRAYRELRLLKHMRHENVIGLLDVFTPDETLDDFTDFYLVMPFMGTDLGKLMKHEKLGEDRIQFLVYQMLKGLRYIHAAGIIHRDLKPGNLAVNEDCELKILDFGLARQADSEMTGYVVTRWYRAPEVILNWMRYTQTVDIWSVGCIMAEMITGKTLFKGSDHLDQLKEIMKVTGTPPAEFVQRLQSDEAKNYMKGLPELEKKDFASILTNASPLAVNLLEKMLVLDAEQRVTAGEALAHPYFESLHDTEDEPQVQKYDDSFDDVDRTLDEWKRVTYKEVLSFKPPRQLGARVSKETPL
Put plainly: Inhibition of His-tagged human SAPK3/p38gamma expressed in Escherichia coli at 50 uM; values are per cent of control.

Test [22] deals with T5, Serine/threonine-protein kinase Chk1 (Homo sapiens). Description: Inhibition of His-tagged human CHK1 expressed in Escherichia coli at 50 uM; values are per cent of control.
Test [23] is filed under the species Rattus norvegicus. Put plainly: Inhibition of rat liver AMPK at 50 uM; values are per cent of control.
Test [24] addresses MAP kinase-activated protein kinase 2 (Homo sapiens, UniProt P49137). Description: Inhibition of His-tagged human MAPKAPK2 expressed in Escherichia coli at 50 uM; values are per cent of control.
For test [25], the species on record is Bos taurus. Description: Inhibition of bovine heart PKA at 50 uM; values are per cent of control.
In test [26] the target is T7, Serine/threonine-protein kinase Sgk1 (Homo sapiens) (UniProt O00141).
T7 sequence (whole entry): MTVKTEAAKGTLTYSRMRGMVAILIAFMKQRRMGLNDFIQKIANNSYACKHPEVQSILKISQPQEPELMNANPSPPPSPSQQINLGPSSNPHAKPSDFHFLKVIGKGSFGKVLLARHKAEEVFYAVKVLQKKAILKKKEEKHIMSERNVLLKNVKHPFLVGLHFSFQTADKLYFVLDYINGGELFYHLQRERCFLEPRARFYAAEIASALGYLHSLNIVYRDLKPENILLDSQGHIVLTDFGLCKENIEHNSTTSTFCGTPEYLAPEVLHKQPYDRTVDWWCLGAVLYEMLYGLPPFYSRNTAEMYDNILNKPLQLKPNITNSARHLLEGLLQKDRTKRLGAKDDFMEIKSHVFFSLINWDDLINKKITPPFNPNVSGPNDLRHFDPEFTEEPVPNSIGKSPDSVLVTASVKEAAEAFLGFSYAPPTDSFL
Put plainly: Inhibition of His-tagged human SGK expressed in Sf9 cells at 50 uM; values are per cent of control.

Test [27] has as its target Mitogen-activated protein kinase 1 (Homo sapiens) (UniProt P28482). Put plainly: Inhibition of His-tagged human MAPK2/ERK2 expressed in Escherichia coli at 50 uM; values are per cent of control.
Test [28] concerns the target [Pyruvate dehydrogenase (acetyl-transferring)] kinase isozyme 1, mitochondrial (Homo sapiens) (UniProt Q15118). Put plainly: Inhibition of His-tagged human PDK1 expressed in Sf21 cells at 50 uM. The note with it: values are per cent of control.
The species named for test [29] is Oryctolagus cuniculus. Put plainly: Inhibition of MAPKAPK1b from rabbit skeletal muscle at 50 uM; values are per cent of control. The conditions noted are these: Muscle tissue.
Test [30] deals with T2, Ribosomal protein S6 kinase beta-1. Description: Inhibition of His-tagged human S6K1 expressed in Escherichia coli at 50 uM; values are per cent of control.
Test [31] has as its target T1, Casein kinase II (Homo sapiens). Description: Inhibition of His-tagged human CK2 expressed in Sf9 cells at 50 uM; values are per cent of control.
Test [32] concerns the target Mitogen-activated protein kinase 8 (Homo sapiens) (UniProt P45983). Description: Inhibition of His-tagged human JNK1a1/SAPK1c expressed in Escherichia coli at 50 uM; values are per cent of control.
Test [33] is filed under the species Oryctolagus cuniculus. Description: Inhibition of rabbit MKK1 expressed in Escherichia coli at 50 uM; values are per cent of control.

Chain of Mitogen-activated protein kinase 8 (Homo sapiens) (P45983 whole entry): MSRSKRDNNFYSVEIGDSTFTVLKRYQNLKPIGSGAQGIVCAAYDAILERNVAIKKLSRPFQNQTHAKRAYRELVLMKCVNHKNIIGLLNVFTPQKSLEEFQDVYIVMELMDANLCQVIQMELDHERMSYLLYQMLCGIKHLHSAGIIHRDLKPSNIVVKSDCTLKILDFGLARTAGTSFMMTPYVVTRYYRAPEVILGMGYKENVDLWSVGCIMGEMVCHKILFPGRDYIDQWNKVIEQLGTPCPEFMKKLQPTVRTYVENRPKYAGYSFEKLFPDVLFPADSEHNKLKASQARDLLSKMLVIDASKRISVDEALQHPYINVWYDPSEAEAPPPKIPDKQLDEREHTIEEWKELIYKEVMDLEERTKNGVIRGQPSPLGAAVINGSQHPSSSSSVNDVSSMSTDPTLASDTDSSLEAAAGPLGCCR
Chain of Mitogen-activated protein kinase 11 (Homo sapiens) (Q15759 whole entry): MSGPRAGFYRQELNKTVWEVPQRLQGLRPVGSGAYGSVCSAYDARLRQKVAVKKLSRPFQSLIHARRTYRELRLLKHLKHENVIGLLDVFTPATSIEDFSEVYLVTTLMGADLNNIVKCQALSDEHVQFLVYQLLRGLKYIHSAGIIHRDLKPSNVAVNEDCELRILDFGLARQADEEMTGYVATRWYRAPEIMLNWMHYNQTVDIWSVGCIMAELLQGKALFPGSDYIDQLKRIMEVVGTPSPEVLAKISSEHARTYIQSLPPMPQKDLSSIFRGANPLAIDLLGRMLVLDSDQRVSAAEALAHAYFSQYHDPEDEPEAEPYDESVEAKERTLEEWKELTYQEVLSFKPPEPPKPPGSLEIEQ
T3 sequence (O75582 whole entry, looked up): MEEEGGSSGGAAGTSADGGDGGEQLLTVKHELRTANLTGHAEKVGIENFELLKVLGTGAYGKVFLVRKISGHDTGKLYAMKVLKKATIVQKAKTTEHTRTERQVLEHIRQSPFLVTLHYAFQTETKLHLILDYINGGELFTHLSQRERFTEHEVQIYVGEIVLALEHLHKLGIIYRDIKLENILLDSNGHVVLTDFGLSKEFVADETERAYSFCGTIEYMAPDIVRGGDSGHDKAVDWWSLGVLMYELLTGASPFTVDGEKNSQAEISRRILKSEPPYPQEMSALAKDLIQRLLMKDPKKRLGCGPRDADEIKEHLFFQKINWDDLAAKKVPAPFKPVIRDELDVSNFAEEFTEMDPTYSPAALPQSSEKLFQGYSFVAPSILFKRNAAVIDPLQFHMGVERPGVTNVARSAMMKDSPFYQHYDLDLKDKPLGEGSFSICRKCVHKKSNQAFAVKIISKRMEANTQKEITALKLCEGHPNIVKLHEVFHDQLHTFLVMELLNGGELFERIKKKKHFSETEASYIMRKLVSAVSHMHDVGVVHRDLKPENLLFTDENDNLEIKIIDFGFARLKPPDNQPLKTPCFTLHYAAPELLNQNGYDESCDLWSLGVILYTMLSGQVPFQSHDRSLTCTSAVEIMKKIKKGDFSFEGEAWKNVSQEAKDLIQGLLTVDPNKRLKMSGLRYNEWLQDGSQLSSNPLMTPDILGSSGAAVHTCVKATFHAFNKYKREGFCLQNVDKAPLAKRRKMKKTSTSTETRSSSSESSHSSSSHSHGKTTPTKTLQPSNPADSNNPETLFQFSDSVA
T2 sequence (P23443 whole entry, looked up): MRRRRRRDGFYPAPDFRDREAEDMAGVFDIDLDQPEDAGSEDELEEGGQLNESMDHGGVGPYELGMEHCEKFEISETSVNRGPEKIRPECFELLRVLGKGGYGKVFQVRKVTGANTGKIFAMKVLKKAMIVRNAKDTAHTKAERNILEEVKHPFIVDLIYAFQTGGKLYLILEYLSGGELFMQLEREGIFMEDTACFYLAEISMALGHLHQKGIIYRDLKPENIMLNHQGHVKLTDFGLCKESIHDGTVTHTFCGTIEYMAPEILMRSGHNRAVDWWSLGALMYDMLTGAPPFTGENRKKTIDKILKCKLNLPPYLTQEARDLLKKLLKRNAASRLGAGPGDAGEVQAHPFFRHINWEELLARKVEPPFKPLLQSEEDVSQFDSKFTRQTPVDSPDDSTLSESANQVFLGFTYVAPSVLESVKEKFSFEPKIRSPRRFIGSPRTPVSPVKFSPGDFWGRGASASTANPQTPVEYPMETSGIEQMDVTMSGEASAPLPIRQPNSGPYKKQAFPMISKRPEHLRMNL
Chain of RAC-alpha serine/threonine-protein kinase (Homo sapiens) (P31749 whole entry): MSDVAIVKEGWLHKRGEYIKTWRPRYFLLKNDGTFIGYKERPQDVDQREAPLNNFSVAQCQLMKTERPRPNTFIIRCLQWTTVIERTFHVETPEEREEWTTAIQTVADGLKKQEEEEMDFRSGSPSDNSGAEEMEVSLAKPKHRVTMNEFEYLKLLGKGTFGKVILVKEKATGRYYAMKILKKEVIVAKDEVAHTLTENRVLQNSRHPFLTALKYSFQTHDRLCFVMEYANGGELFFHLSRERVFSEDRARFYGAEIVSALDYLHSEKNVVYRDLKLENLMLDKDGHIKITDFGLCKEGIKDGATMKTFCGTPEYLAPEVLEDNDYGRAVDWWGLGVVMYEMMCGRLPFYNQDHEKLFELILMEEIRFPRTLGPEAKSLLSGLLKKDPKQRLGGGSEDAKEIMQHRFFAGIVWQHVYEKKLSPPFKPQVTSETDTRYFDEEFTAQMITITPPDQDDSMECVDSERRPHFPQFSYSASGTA
Chain of MAP kinase-activated protein kinase 2 (P49137 whole entry, looked up): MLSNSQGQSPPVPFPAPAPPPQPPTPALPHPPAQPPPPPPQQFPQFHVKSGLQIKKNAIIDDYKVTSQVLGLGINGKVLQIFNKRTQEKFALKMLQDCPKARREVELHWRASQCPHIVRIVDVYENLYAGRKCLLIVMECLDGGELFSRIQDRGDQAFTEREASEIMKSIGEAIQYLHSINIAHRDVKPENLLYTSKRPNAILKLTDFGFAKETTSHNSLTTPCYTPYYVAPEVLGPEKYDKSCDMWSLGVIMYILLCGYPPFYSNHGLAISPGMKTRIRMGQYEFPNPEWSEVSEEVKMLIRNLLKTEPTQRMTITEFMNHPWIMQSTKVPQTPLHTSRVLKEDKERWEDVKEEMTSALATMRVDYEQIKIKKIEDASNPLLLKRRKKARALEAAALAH
Chain of Mitogen-activated protein kinase 14 (Homo sapiens) (Q16539 whole entry): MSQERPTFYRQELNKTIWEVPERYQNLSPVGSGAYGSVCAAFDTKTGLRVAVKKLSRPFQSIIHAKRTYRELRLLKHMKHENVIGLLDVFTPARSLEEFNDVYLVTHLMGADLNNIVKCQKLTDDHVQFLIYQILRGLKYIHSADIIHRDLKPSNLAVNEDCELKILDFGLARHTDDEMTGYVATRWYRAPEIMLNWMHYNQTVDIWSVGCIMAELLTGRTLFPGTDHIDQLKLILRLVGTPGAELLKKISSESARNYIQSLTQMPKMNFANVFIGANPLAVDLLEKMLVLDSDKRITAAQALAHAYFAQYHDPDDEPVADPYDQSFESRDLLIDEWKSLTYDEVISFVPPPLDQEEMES
Chain of Serine/threonine-protein kinase N2 (Homo sapiens) (Q16513 whole entry, looked up): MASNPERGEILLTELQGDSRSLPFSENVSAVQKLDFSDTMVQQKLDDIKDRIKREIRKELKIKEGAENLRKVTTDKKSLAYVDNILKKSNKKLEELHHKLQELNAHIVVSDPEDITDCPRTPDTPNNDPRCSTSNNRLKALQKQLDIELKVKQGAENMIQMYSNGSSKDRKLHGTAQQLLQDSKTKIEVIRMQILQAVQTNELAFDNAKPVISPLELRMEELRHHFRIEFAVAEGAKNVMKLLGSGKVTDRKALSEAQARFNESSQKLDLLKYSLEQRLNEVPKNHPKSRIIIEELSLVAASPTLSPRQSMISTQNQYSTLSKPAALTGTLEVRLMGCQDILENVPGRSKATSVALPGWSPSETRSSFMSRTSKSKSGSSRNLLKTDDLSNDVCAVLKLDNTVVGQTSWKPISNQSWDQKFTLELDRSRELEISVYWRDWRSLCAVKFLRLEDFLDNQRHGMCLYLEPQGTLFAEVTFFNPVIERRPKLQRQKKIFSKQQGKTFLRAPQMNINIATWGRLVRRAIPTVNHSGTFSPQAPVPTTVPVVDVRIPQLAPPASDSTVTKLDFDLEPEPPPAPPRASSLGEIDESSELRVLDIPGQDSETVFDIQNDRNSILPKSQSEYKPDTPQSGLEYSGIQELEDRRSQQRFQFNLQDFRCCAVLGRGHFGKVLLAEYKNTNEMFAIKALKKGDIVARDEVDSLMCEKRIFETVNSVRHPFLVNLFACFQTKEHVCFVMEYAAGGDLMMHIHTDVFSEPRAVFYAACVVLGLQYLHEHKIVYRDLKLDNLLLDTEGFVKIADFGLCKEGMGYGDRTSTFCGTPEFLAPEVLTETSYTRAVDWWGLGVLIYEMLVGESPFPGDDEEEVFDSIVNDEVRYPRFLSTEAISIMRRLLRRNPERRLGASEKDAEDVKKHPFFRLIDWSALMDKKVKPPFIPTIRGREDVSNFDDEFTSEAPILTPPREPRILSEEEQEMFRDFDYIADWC

Regarding `O=S(=O)(c1cccc2cnccc12)N1CCCNCC1`, the residual activity in test [1] was determined as 97%; in test [3] it was 102%; in test [4], 96%; in test [5], 32%; in test [6], 77%; in [7] it was 19%. For the same compound, the residual activity amounted to 103% in test [8], 35% in test [10] and 82% in test [11]. Besides, in test [2], the level, % of control is 58%. The inhibition in test [9] amounted to 15%.
For the compound `COc1cccc(-c2cc(=O)c3ccccc3o2)c1N`, the residual activity came out at 95% in [12]; 93% in test [13]; 101% in test [14]; 80% in test [16]; 86% in test [17]; 85% in test [18]. For the same compound, the residual activity in [19] is 82%; in test [20] it was 94%; in test [21] it was 96%; in test [22], 99%; in test [23], 97%; in [24], 95%. Besides, the residual activity in [25] turned out to be 106%; in test [26], 90%; in [27] it was 85%; in test [28], 86%; in [30], 100%; in test [31], 87%. In addition, the residual activity in test [32] worked out at 111%; in test [33], 89%. The level, % of control turned out to be 87% in test [15] and 93% in [29].

As a reminder, the inhibition is the share of the control response that was lost under treatment. A lower inhibition goes with a weak effect.
